# Measured values: PubChem BioAssay (NCI)
#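 Briefly, cells in 96-well plates were exposed to five compound concentrations for 48 h, and endpoints were estimated by linear interpolation. GI50 marks 50% less growth. TGI denotes the concentration required for complete inhibition of growth.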
# Key:
# Assay in all cases: growth of human tumour cells (NCI), 48 h
# MDA-MB-231 breast = test system: MDA-MB-231 breast
# SF-295 CNS = test system: SF-295 CNS
# A549 NSCLC = test system: A549 NSCLC
# RPMI-8226 leukemia = test system: RPMI-8226 leukemia
# MCF7 breast = test system: MCF7 breast
# K-562 leukemia = test system: K-562 leukemia
# SF-539 CNS = test system: SF-539 CNS
# UACC-62 melanoma = test system: UACC-62 melanoma
# BT-549 breast = test system: BT-549 breast
# NCI-H23 lung = test system: NCI-H23 lung
# TK-10 renal = test system: TK-10 renal
# HL-60(TB) leukemia = test system: HL-60(TB) leukemia
# HT29 colon = test system: HT29 colon
# MOLT-4 leukemia = test system: MOLT-4 leukemia
# DU-145 prostate = test system: DU-145 prostate
# HCC-2998 colon = test system: HCC-2998 colon
# M14 melanoma = test system: M14 melanoma
# UO-31 renal = test system: UO-31 renal
# A498 renal = test system: A498 renal
# 786-0 renal = test system: 786-0 renal
# HCT-116 colon = test system: HCT-116 colon
# IGROV1 ovarian = test system: IGROV1 ovarian
# SN12C renal = test system: SN12C renal
# SF-268 CNS = test system: SF-268 CNS
# KM12 colon = test system: KM12 colon
# T-47D breast = test system: T-47D breast
# NCI-H460 lung = test system: NCI-H460 lung
# LOX IMVI melanoma = test system: LOX IMVI melanoma
# NCI/ADR-RES ovarian = test system: NCI/ADR-RES ovarian
# HCT-15 colon = test system: HCT-15 colon
# SK-MEL-28 melanoma = test system: SK-MEL-28 melanoma
# OVCAR-8 ovarian = test system: OVCAR-8 ovarian
# CCRF-CEM leukemia = test system: CCRF-CEM leukemia
# RXF 393 renal = test system: RXF 393 renal
# OVCAR-5 ovarian = test system: OVCAR-5 ovarian
# SNB-75 CNS = test system: SNB-75 CNS
# MDA-MB-435 = test system: MDA-MB-435
# HS 578T breast = test system: HS 578T breast
# U251 CNS = test system: U251 CNS
# COLO 205 colon = test system: COLO 205 colon
# NCI-H226 lung = test system: NCI-H226 lung
# ACHN renal = test system: ACHN renal
# HOP-62 NSCLC = test system: HOP-62 NSCLC
# SW-620 colon = test system: SW-620 colon
# OVCAR-4 ovarian = test system: OVCAR-4 ovarian
# PC-3 prostate = test system: PC-3 prostate
# SK-OV-3 ovarian = test system: SK-OV-3 ovarian
# SNB-19 CNS = test system: SNB-19 CNS
# HOP-92 NSCLC = test system: HOP-92 NSCLC
# SR leukemia = test system: SR leukemia
# OVCAR-3 ovarian = test system: OVCAR-3 ovarian
# CAKI-1 renal = test system: CAKI-1 renal
# SK-MEL-5 melanoma = test system: SK-MEL-5 melanoma
# UACC-257 melanoma = test system: UACC-257 melanoma
# SK-MEL-2 melanoma = test system: SK-MEL-2 melanoma
# NCI-H522 lung = test system: NCI-H522 lung
# MALME-3M melanoma = test system: MALME-3M melanoma
compound,measurement,setting,value
CCOC(=O)c1ccc2c(c1)nc1n2C(c2c(F)cccc2F)SC1 (centres undefined),TGI,MDA-MB-231 breast,> 100 µM
same,TGI,SF-295 CNS,73.7 µM
same,TGI,A549 NSCLC,> 100 µM
same,TGI,RPMI-8226 leukemia,> 100 µM
same,TGI,MCF7 breast,74.6 µM
same,TGI,K-562 leukemia,> 100 µM
same,TGI,SF-539 CNS,53.1 µM
same,TGI,UACC-62 melanoma,> 100 µM
same,TGI,BT-549 breast,> 100 µM
same,TGI,NCI-H23 lung,77.3 µM
same,TGI,TK-10 renal,> 100 µM
same,TGI,HL-60(TB) leukemia,> 100 µM
same,TGI,HT29 colon,56.4 µM
same,TGI,MOLT-4 leukemia,> 100 µM
same,TGI,DU-145 prostate,> 100 µM
same,TGI,HCC-2998 colon,> 100 µM
same,TGI,M14 melanoma,> 100 µM
same,TGI,UO-31 renal,> 100 µM
same,TGI,A498 renal,> 100 µM
same,TGI,786-0 renal,67.8 µM
same,TGI,HCT-116 colon,34 µM
same,TGI,IGROV1 ovarian,42 µM
same,TGI,SN12C renal,> 100 µM
same,TGI,SF-268 CNS,> 100 µM
same,TGI,KM12 colon,37.7 µM
same,TGI,T-47D breast,49.9 µM
same,TGI,NCI-H460 lung,> 100 µM
same,TGI,LOX IMVI melanoma,58.6 µM
same,TGI,NCI/ADR-RES ovarian,44.9 µM
same,TGI,HCT-15 colon,> 100 µM
same,TGI,SK-MEL-28 melanoma,> 100 µM
same,TGI,OVCAR-8 ovarian,58.7 µM
same,TGI,CCRF-CEM leukemia,> 100 µM
same,TGI,RXF 393 renal,> 100 µM
same,TGI,OVCAR-5 ovarian,> 100 µM
same,TGI,SNB-75 CNS,> 100 µM
same,TGI,MDA-MB-435,> 100 µM
same,TGI,HS 578T breast,> 100 µM
same,TGI,U251 CNS,> 100 µM
same,TGI,COLO 205 colon,28.5 µM
same,TGI,NCI-H226 lung,34.6 µM
same,TGI,ACHN renal,> 100 µM
same,TGI,HOP-62 NSCLC,> 100 µM
same,TGI,SW-620 colon,> 100 µM
same,TGI,OVCAR-4 ovarian,> 100 µM
same,TGI,PC-3 prostate,71.2 µM
same,TGI,SK-OV-3 ovarian,> 100 µM
same,TGI,SNB-19 CNS,83.5 µM
same,TGI,HOP-92 NSCLC,> 100 µM
same,TGI,SR leukemia,> 100 µM
same,TGI,OVCAR-3 ovarian,43.4 µM
same,TGI,CAKI-1 renal,> 100 µM
same,TGI,SK-MEL-5 melanoma,26.1 µM
same,TGI,UACC-257 melanoma,> 100 µM
same,TGI,SK-MEL-2 melanoma,38.4 µM
CCC1CCc2nc3sc(C(=O)Nc4ccccc4F)c(N)c3cc2C1 (centres undefined),GI50,MDA-MB-231 breast,> 100 µM
same,TGI,MDA-MB-231 breast,> 100 µM
same,GI50,SF-295 CNS,0.669 µM
same,TGI,SF-295 CNS,> 100 µM
same,GI50,A549 NSCLC,> 100 µM
same,TGI,A549 NSCLC,> 100 µM
same,GI50,RPMI-8226 leukemia,0.94 µM
same,TGI,RPMI-8226 leukemia,> 100 µM
same,GI50,MCF7 breast,0.318 µM
same,TGI,MCF7 breast,> 100 µM
same,GI50,K-562 leukemia,0.402 µM
same,TGI,K-562 leukemia,> 100 µM
same,TGI,SF-539 CNS,> 100 µM
same,GI50,UACC-62 melanoma,0.523 µM
same,TGI,UACC-62 melanoma,> 100 µM
same,GI50,BT-549 breast,> 100 µM
same,TGI,BT-549 breast,> 100 µM
same,GI50,NCI-H23 lung,> 100 µM
same,TGI,NCI-H23 lung,> 100 µM
same,GI50,HL-60(TB) leukemia,0.302 µM
same,TGI,HL-60(TB) leukemia,0.978 µM
same,GI50,HT29 colon,0.915 µM
same,TGI,HT29 colon,> 100 µM
same,GI50,MOLT-4 leukemia,0.471 µM
same,TGI,MOLT-4 leukemia,> 100 µM
same,GI50,DU-145 prostate,2.82 µM
same,TGI,DU-145 prostate,> 100 µM
same,GI50,HCC-2998 colon,> 100 µM
same,TGI,HCC-2998 colon,> 100 µM
same,GI50,UO-31 renal,> 100 µM
same,TGI,UO-31 renal,> 100 µM
same,GI50,A498 renal,0.0575 µM
same,TGI,A498 renal,0.689 µM
same,GI50,786-0 renal,41.7 µM
same,TGI,786-0 renal,> 100 µM
same,GI50,HCT-116 colon,1.36 µM
same,TGI,HCT-116 colon,> 100 µM
same,GI50,IGROV1 ovarian,> 100 µM
same,TGI,IGROV1 ovarian,> 100 µM
same,GI50,SN12C renal,> 100 µM
same,TGI,SN12C renal,> 100 µM
same,GI50,SF-268 CNS,16.8 µM
same,TGI,SF-268 CNS,> 100 µM
same,GI50,NCI-H522 lung,24.8 µM
same,TGI,NCI-H522 lung,> 100 µM
same,GI50,KM12 colon,0.643 µM
same,TGI,KM12 colon,> 100 µM
same,GI50,T-47D breast,> 100 µM
same,TGI,T-47D breast,> 100 µM
same,GI50,NCI-H460 lung,2.71 µM
same,TGI,NCI-H460 lung,> 100 µM
same,GI50,LOX IMVI melanoma,7.66 µM
same,TGI,LOX IMVI melanoma,> 100 µM
same,GI50,NCI/ADR-RES ovarian,9.5 µM
same,TGI,NCI/ADR-RES ovarian,> 100 µM
same,GI50,HCT-15 colon,0.401 µM
same,TGI,HCT-15 colon,> 100 µM
same,GI50,SK-MEL-28 melanoma,11.3 µM
same,TGI,SK-MEL-28 melanoma,> 100 µM
same,GI50,OVCAR-8 ovarian,> 100 µM
same,TGI,OVCAR-8 ovarian,> 100 µM
same,GI50,CCRF-CEM leukemia,1.72 µM
same,TGI,CCRF-CEM leukemia,> 100 µM
same,GI50,RXF 393 renal,1.18 µM
same,TGI,RXF 393 renal,> 100 µM
same,GI50,OVCAR-5 ovarian,22.8 µM
same,TGI,OVCAR-5 ovarian,> 100 µM
same,GI50,MALME-3M melanoma,3.55 µM
same,TGI,MALME-3M melanoma,> 100 µM
same,GI50,SNB-75 CNS,2.16 µM
same,TGI,SNB-75 CNS,> 100 µM
same,GI50,MDA-MB-435,0.133 µM
same,TGI,MDA-MB-435,0.562 µM
same,GI50,HS 578T breast,2.13 µM
same,TGI,HS 578T breast,> 100 µM
same,GI50,U251 CNS,> 100 µM
same,TGI,U251 CNS,> 100 µM
same,GI50,COLO 205 colon,7.4 µM
same,TGI,COLO 205 colon,> 100 µM
same,GI50,NCI-H226 lung,> 100 µM
same,TGI,NCI-H226 lung,> 100 µM
same,GI50,ACHN renal,> 100 µM
same,TGI,ACHN renal,> 100 µM
same,GI50,HOP-62 NSCLC,> 100 µM
same,TGI,HOP-62 NSCLC,> 100 µM
same,GI50,SW-620 colon,0.819 µM
same,TGI,SW-620 colon,> 100 µM
same,GI50,OVCAR-4 ovarian,> 100 µM
same,TGI,OVCAR-4 ovarian,> 100 µM
same,GI50,PC-3 prostate,18.8 µM
same,TGI,PC-3 prostate,> 100 µM
same,GI50,SK-OV-3 ovarian,> 100 µM
same,TGI,SK-OV-3 ovarian,> 100 µM
same,GI50,SNB-19 CNS,53.8 µM
same,TGI,SNB-19 CNS,> 100 µM
same,GI50,HOP-92 NSCLC,4 µM
same,TGI,HOP-92 NSCLC,> 100 µM
same,GI50,SR leukemia,0.284 µM
same,TGI,SR leukemia,38.1 µM
same,GI50,OVCAR-3 ovarian,0.454 µM
same,TGI,OVCAR-3 ovarian,8.98 µM
same,GI50,CAKI-1 renal,0.768 µM
same,TGI,CAKI-1 renal,> 100 µM
same,GI50,SK-MEL-5 melanoma,0.656 µM
same,TGI,SK-MEL-5 melanoma,> 100 µM
same,GI50,UACC-257 melanoma,0.934 µM
same,TGI,UACC-257 melanoma,> 100 µM
same,GI50,SK-MEL-2 melanoma,10.5 µM
same,TGI,SK-MEL-2 melanoma,> 100 µM
